Assay results published in US11685732B2, “MYST family histone acetyltransferase inhibitors” (Epizyme, Inc., priority 2017, dated 2023).
Where two headings read alike, the source gives them in different places.

Tests used:
[1] = target: KAT-7 (Homo sapiens (Human), UniProt O95251); test: KAT-7 biochemical inhibition assay (SAMDI mass spectrometry)
Description: (§1) KAT-7. Enzyme assay buffer was 50 mM Tris pH 8.0, 0.002% Tween20, 0.005% bovine skin gelatin, and 1 mM dithiothreitol (DTT). For determination of IC50 values, compounds were serially diluted with 2% (v/v) DMSO in the final reaction, pre-incubating each dilution of each compound with 40 μL of assay buffer containing KAT-7 enzyme (6 nM final concentration). 10 μL of assay buffer containing 1 μM peptide substrate and 2 μM acetyl coenzyme A (final concentrations) was added. Reactions (50 μL total) were then carried out at 25° C. for 120 minutes. Reactions were terminated by the addition of 0.5% formic acid (final concentration), and a sample of each reaction was analyzed by SAMDI Tech, Inc. (Chicago, Ill.) using self-assembled monolayer desorption/ionization time-of-flight mass spectrometry (Mrksich, M. (2008) Mass spectrometry of self-assembled monolayers: a new tool for molecular surface science. ACS Nano 2, 7-18).

[2] = target: KAT-6A (Homo sapiens (Human), UniProt Q92794); test: KAT-6A biochemical inhibition assay (SAMDI mass spectrometry)
KAT-6A, sequence (Q92794 other isoform, or with tags, fused parts or gaps): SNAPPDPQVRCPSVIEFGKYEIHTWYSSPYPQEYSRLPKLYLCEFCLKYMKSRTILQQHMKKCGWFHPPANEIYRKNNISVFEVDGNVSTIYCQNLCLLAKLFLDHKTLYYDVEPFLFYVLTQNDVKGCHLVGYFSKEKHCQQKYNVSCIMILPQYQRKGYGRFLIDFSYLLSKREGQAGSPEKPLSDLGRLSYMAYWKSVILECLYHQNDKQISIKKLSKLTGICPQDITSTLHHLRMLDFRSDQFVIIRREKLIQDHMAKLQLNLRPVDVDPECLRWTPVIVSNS
Procedure, shortened: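 IC50 values came from SAMDI time-of-flight mass spectrometry after formic acid quench (0.5% final). Acetylation ran 90 min at 25 °C with 1 μM acetyl coenzyme A and 1 μM peptide substrate, following compound pre-incubation with 12.5 nM KAT-6A in Tris buffer pH 8.0 containing DTT, 2% DMSO final.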

[3] = target: KAT-8 (Homo sapiens (Human), UniProt Q9H7Z6); test: KAT-8 biochemical inhibition assay (SAMDI mass spectrometry)
KAT-8, sequence (Q9H7Z6 other isoform, or with tags, fused parts or gaps): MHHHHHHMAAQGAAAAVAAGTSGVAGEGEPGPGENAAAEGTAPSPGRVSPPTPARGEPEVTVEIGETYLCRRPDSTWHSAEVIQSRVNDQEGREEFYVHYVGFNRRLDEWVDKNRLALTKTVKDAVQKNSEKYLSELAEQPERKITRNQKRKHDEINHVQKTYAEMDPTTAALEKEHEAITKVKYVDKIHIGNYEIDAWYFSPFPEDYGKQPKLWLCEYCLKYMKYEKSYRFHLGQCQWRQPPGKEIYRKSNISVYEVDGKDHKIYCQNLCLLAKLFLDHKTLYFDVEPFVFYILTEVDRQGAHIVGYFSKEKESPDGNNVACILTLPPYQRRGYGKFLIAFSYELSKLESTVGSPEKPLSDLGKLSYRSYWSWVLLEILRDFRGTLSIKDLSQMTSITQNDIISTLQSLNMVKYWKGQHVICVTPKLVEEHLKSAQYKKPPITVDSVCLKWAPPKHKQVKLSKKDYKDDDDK
Description: as §1, with “KAT-8. Enzyme” for “KAT-7. Enzyme”, “containing KAT-8” for “containing KAT-7”, “enzyme (12.5” for “enzyme (6”, “and 5” for “and 2”, “for 90” for “for 120”

[4] = target: KAT-5 (Homo sapiens (Human), UniProt Q92993); test: KAT-5 biochemical inhibition assay (SAMDI mass spectrometry)
KAT-5, sequence (Q92993 other isoform, or with tags, fused parts or gaps): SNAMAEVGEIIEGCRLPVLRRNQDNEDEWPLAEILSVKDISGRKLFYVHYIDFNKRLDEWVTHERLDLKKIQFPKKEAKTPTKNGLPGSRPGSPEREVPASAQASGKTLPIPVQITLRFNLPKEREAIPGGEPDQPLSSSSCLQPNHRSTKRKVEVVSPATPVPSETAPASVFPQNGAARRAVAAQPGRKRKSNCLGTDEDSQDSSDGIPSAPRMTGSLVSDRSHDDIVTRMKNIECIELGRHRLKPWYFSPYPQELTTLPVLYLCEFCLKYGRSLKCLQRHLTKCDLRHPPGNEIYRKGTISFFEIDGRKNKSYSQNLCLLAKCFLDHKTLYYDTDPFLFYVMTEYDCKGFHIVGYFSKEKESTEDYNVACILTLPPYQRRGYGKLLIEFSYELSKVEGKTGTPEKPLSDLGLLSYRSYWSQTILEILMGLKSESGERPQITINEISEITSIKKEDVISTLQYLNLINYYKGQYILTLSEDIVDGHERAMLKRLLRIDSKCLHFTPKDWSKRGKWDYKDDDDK
Procedure, shortened: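 Acetylation of 1 μM peptide by 9 nM enzyme with 0.5 μM acetyl-CoA (final) was run 90 min at 25° C in Tris pH 8.0 buffer with DTT, after compound preincubation at 2% DMSO. Formic acid stopped the reaction, and product was quantified by SAMDI mass spectrometry to derive IC50.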

KAT-7, sequence (O95251 other isoform, or with tags, fused parts or gaps): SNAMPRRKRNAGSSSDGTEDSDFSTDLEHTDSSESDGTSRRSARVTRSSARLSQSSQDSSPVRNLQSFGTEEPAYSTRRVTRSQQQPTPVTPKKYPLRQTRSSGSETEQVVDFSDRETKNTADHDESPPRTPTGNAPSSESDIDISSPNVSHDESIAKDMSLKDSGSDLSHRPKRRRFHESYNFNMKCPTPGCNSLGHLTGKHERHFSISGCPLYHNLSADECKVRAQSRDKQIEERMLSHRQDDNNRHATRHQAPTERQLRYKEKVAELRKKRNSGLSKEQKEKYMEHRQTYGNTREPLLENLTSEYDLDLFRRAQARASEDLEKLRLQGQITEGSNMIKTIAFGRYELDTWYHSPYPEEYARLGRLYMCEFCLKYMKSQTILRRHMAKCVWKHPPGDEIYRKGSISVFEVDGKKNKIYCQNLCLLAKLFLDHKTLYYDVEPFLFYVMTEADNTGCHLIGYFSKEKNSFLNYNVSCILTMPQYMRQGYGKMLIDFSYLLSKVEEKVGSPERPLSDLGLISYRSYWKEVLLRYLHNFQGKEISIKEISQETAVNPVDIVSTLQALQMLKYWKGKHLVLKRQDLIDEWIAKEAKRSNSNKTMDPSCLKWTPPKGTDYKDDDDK

## Cc1ncnn1-c1cc(Cl)c(F)c(C(=O)NNS(=O)(=O)CC2CCOCC2)c1 [Compound I-100]
[1]
  IC50: 10 to 50 µM
[2]
  IC50: 10 to 50 µM
[3]
  IC50: 10 to 50 µM
[4]
  IC50: 10 to 50 µM

## CN1CCN([C@H]2CC[C@@H](CS(=O)(=O)NNC(=O)c3cc(-c4cn(C)cn4)cc(Cl)c3F)CC2)C1=O [Compound I-310]
[1]
  IC50: < 10 µM
[2]
  IC50: < 10 µM
[3]
  IC50: 10 to 50 µM
[4]
  IC50: < 10 µM

## Cc1cc(-c2cn(C)cn2)cc(C(=O)NNS(=O)(=O)CC2CCOCC2)c1F [Compound I-130]
[1]
  IC50: < 10 µM
[2]
  IC50: 10 to 50 µM
[3]
  IC50: > 100 µM
[4]
  IC50: < 10 µM

## Cn1cnc(-c2cc(Cl)c(F)c(C(=O)NNS(=O)(=O)C[C@H]3CCC[C@H](O)C3)c2)c1 [Compound I-306]
[1]
  IC50: < 10 µM
[2]
  IC50: < 10 µM
[3]
  IC50: 10 to 50 µM
[4]
  IC50: < 10 µM

## O=C(NNS(=O)(=O)CC1CCOCC1)c1cc(-n2cncn2)cc(Cl)c1F [Compound I-165]
[1]
  IC50: 10 to 50 µM
[2]
  IC50: 10 to 50 µM
[3]
  IC50: 10 to 50 µM
[4]
  IC50: 10 to 50 µM

## O=C(NNS(=O)(=O)CC1CCCCC1)c1cc(-c2cn(Cc3ncco3)cn2)cc(Cl)c1F [Compound I-219]
[1]
  IC50: < 10 µM
[2]
  IC50: < 10 µM
[3]
  IC50: 10 to 50 µM
[4]
  IC50: < 10 µM

## CC1CCCCC1CS(=O)(=O)NNC(=O)c1cc(-c2cn(C)cn2)cc(Cl)c1F (centres unmarked) [Compound I-335]
[1]
  IC50: < 10 µM
[2]
  IC50: < 10 µM
[3]
  IC50: 10 to 50 µM
[4]
  IC50: < 10 µM

## Cn1cnc(-c2cc(Cl)c(F)c(C(=O)NNS(=O)(=O)c3cccc(F)c3)c2)c1 [Compound I-320]
[1]
  IC50: < 10 µM
[2]
  IC50: < 10 µM
[3]
  IC50: 10 to 50 µM
[4]
  IC50: < 10 µM

## Cn1cnc(-c2cc(Cl)c(F)c(C(=O)NNS(=O)(=O)C[C@H]3C[C@H](NC(N)=O)C3)c2)c1 [Compound I-207]
[1]
  IC50: < 10 µM
[2]
  IC50: < 10 µM
[3]
  IC50: 10 to 50 µM
[4]
  IC50: 10 to 50 µM

## Cn1cnc(-c2cc(Cl)c(F)c(C(=O)NNS(=O)(=O)CC3CCCC(F)(F)C3)c2)c1 (centres unmarked) [Compound I-342]
[1]
  IC50: < 10 µM
[2]
  IC50: < 10 µM
[3]
  IC50: 10 to 50 µM
[4]
  IC50: < 10 µM

## Cn1cnc(-c2cc(Cl)c(F)c(C(=O)NNS(=O)(=O)C[C@H]3CCC[C@H](N)C3)c2)c1 [Compound I-349]
[1]
  IC50: < 10 µM
[2]
  IC50: 10 to 50 µM
[3]
  IC50: 10 to 50 µM
[4]
  IC50: 10 to 50 µM

## COc1ccc(CNC(=O)N2CCC(CS(=O)(=O)NNC(=O)c3cc(-c4cn(C)cn4)cc(Cl)c3F)C2)cc1 (centres unmarked) [Compound I-181]
[1]
  IC50: < 10 µM
[2]
  IC50: < 10 µM
[3]
  IC50: 10 to 50 µM
[4]
  IC50: < 10 µM

## Cn1cnc(-c2cc(Cl)c(F)c(C(=O)NNS(=O)(=O)CC3CN(C(=O)OC(C)(C)C)C3)c2)c1 [Compound I-95]
[1]
  IC50: < 10 µM
[2]
  IC50: < 10 µM
[3]
  IC50: 10 to 50 µM
[4]
  IC50: 10 to 50 µM

## Cc1cc(-c2ccccc2)cc(C(=O)NNS(=O)(=O)CC2CCCN(C(=O)OC(C)(C)C)C2)c1F (single isomer, unassigned) [B, reference compound]
[1]; Table 6, comparative compounds
  IC50: ≤ 10 µM
[2]; Table 6, comparative compounds
  IC50: ≤ 10 µM
[3]; Table 6, comparative compounds
  IC50: 50 to 100 µM
[4]; Table 6, comparative compounds
  IC50: ≤ 10 µM

## Cn1cc(-c2cc(Cl)c(F)c(C(=O)NNS(=O)(=O)CC3CCCCC3)c2)nn1 [Compound I-55]
[1]
  IC50: < 10 µM
[2]
  IC50: < 10 µM
[3]
  IC50: 10 to 50 µM
[4]
  IC50: < 10 µM

## CCNC(=O)NC1CCC(CS(=O)(=O)NNC(=O)c2cc(-c3cn(C)cn3)cc(Cl)c2F)C1 (centres unmarked) [Compound I-286]
[1]
  IC50: < 10 µM
[2]
  IC50: < 10 µM
[3]
  IC50: 10 to 50 µM
[4]
  IC50: < 10 µM

## CN(C)C(=O)N(C)[C@H]1CC[C@@H](CS(=O)(=O)NNC(=O)c2cc(-c3cn(C)cn3)cc(Cl)c2F)CC1 [Compound I-365]
[1]
  IC50: < 10 µM
[2]
  IC50: < 10 µM
[3]
  IC50: 10 to 50 µM
[4]
  IC50: < 10 µM
